Patent US20240293367A1, “METHODS OF TREATING DISORDERS WITH A […]” (Cybin IRL Limited, priority 2023, published 2024)
Values joined by “and” are separate entries in the source; they are usually repeats but may differ in a detail not shown here. Equal entries are not always repeated.

Tested on: participants with MDD
Assay: MADRS total score, response, remission and relapse in MDD participants (Phase I/IIa study)
Assay type: in vivo, human
Conditions: for effect size, Cohen's d, versus placebo (MADRS): Day 21
Source text: Cohorts 1, 4, 5, and 6 of the study was comprised of participants with MDD. Cohorts 2, 3, and the relative BA cohort of the study were comprised of normal healthy volunteers (NHV). […] MDD participants had been on a stable dose of antidepressant medication for at least one month prior to screening with an inadequate response to that antidepressant medication as judged by the Investigator, and continued to receive their prescribed antidepressant throughout the course of the study.
Cohorts 4 and 5. For Cohorts 4 and 5, 12 participants each (24 participants total) were randomized in a 3:1 ratio to receive 12 mg of psilocin-d10 or matched placebo in a single dosing session on Day 1. Following a 21-day interval, all participants received a dose of 12 mg psilocin-d10 on Day 22 (second dose for participants originally randomized to psilocin-d10, first dose for participants randomized to placebo), and were followed to Day 42.
Cohort 6. For Cohort 6, 12 participants were randomized in a 3:1 ratio to receive 16 mg of psilocin-d10 or matched placebo in a single dosing session on Day 1. Following a 21-day interval, all participants received a dose of 16 mg psilocin-d10 on Day 22 (second dose for participants originally randomized to psilocin-d10, first dose for participants randomized to placebo), and were followed to Day 42. Given the availability of data and considering that the secondary endpoint was a change in baseline to Day 21 in MADRS, efficacy data presented herein considers the data cut off of Day 21 postdose. One participant had to be withdrawn from the study due to pregnancy.
The primary efficacy endpoint defined in the statistical analysis plan (SAP) is the change from baseline to Day 21 of the total Montgomery-Åsberg Depression Rating Scale (MADRS) score compared to placebo, therefore efficacy data presented herein considers the data cut off of Day 21 postdose. Mean total score and change from baseline on Montgomery-Åsberg Depression Rating Scale (MADRS) on days 1, 10, 17, 22, 31, 38, and 42 are presented as secondary efficacy endpoints.
The secondary objective of the study was to evaluate the efficacy of psilocin-d10 in treating symptoms of MDD as measured by the change from baseline to Day 21 of the MADRS total score in the Intent-to-Treat population, with data analyzed according to the treatment group each participant was randomized to receive. Data from participants in Cohorts 4, 5, and 6 randomized to placebo was pooled for analysis purposes (N=9). Data from participants in Cohorts 4, 5, and 6 randomized to 12 mg or 16 mg psilocin-d10 (N=27) was also pooled for analysis.
Data from the study was also analyzed according to dosage level of psilocin-d10. Data from participants in Cohorts 4, 5, and 6 randomized to placebo was pooled for analysis purposes (N=9). Data from participants in Cohorts 4 and 5 (treated with 12 mg psilocin-d10) was also pooled for analysis (N=18).
The rates of remission, response, and relapse were also evaluated within the study. […] Additionally, 20.8% (5 out of 24) of participants in the psilocin-do group (12 mg and 16 mg combined) were in remission (remitters) (defined as a MADRS score of ≤10) compared to 0% for placebo at Day 21. The same 5 participants who were in remission were also classified as responders. None of the participants relapsed at Day 21 compared to baseline.
The MADRS is a 10-item scale with ratings based on a clinical interview which moves from broadly phrased questions about symptoms to more detailed ones allowing a precise rating of severity. A rating scale from 0 to 6 is employed and the rater must decide whether the rating lies on defined scale steps (0, 2, 4, 6) or between them (1, 3, 5). The MADRS can be used for any time interval between ratings, be it weekly or otherwise, and the time interval should be recorded. […]

[1] = Day 42, Cohort 4, two 12 mg doses
[2] = Day 42, Cohort 5, two 12 mg doses
[3] = Day 42, Cohort 6, two 16 mg doses
[4] = Day 42, Cohorts 4 and 5, two 12 mg doses
[5] = Day 42, Placebo/active group, one dose Day 22
[6] = Day 42, Placebo/active group: one psilocin-d10 dose Day 22
[7] = Day 42, two 12 mg doses (11 out of 14)
[8] = Day 42, two 12 mg doses, Cohorts 4 and 5
[9] = Day 42, two 16 mg doses, Cohort 6
[10] = Day 42, two doses (Day 1, Day 22), 12 and 16 mg pooled
[11] = Day 42, two doses, 12 and 16 mg pooled
[12] = Day 42, two doses, pooled 12 mg and 16 mg

Compound: [2H]C([2H])([2H])N(C([2H])([2H])[2H])C([2H])([2H])C([2H])([2H])c1c[nH]c2cccc(O)c12 [psilocin-d10, 3-(2-(bis(methyl-d3)amino)ethyl-1,1,2,2-d4)-1H-indol-4-ol]
- Relapse - Yes [1]: 0 (0.0) n (%)
- Remission (MADRS ≤10) - Yes [1]: 5 (71.4) n (%)
- Remission - No [1]: 2 (28.6) n (%)
- Response (≥50% reduction from baseline MADRS) - Yes [1]: 5 (71.4) n (%)
- Response - No [1]: 2 (28.6) n (%)
- Relapse - No [2]: 8 (100.0) n (%)
- Relapse - Yes [2]: 0 (0.0) n (%)
- Remission (MADRS ≤10) - Yes [2]: 6 (85.7) n (%)
- Remission - No [2]: 1 (14.3) n (%)
- Response (≥50% reduction from baseline MADRS) - Yes [2]: 6 (85.7) n (%)
- Response - No [2]: 1 (14.3) n (%)
- Relapse - No [3]: 8 (100.0) n (%)
- Relapse - Yes [3]: 0 (0.0) n (%)
- Remission (MADRS ≤10) - Yes [3]: 4 (50.0) n (%)
- Remission - No [3]: 4 (50.0) n (%)
- Response (≥50% reduction from baseline MADRS) - Yes [3]: 6 (75.0) n (%)
- Response - No [3]: 2 (25.0) n (%)
- Relapse - No [4]: 15 (100.0) n (%)
- Relapse - Yes [4]: 0 (0.0) n (%)
- Remission (MADRS ≤10) - Yes [4]: 11 (78.6) n (%)
- Remission - No [4]: 3 (21.4) n (%)
- Response (≥50% reduction from baseline MADRS) - Yes [4]: 11 (78.6) n (%)
- Response - No [4]: 3 (21.4) n (%)
- Relapse - No [5]: 9 (100.0) n (%)
- Relapse - Yes [5]: 0 (0.0) n (%)
- Remission - No [5]: 5 (55.6) n (%)
- Response (≥50% reduction from baseline MADRS) - Yes [5]: 4 (44.4) n (%)
- Response - No [5]: 5 (55.6) n (%)
- Remission (MADRS ≤10) - Yes (Day 42, Placebo/active group, one dose Day 22 (pooled 12 mg and 16 mg)): 4 (44.4) n (%)
- MADRS total score, Change from Baseline, Median [6]: −14.0
- MADRS total score, Observed, Median [6]: 16.0
- MADRS total score, Change from Baseline, Mean (Day 42, Placebo/active group: one psilocin-d10 dose Day 22 (12 and 16 mg pooled)): −16.4
- MADRS total score, Observed, Mean (Day 42, Placebo/active group: placebo Day 1, one psilocin-d10 dose Day 22 (12 and 16 mg pooled)): 15.1
- participants in remission (Day 42, after second dose, 12 mg and 16 mg combined (15 out of 22)): 68.2%
- participants with response (Day 42, after second dose, 12 mg and 16 mg combined (17 out of 22)): 77.3% and 77%
- participants with response (Day 42, placebo/psilocin-d10 group, first dose Day 22 (4 out of 9)): 44.4%
- participants in remission [7]: 78.6%
- participants with response [7]: 78.6%
- MADRS total score, Change from Baseline, Mean [8]: −22.8
- MADRS total score, Change from Baseline, Median [8]: −25.5
- MADRS total score, Observed, Mean [8]: 9.4
- MADRS total score, Observed, Median [8]: 3.5
- participants in remission (Day 42, two 16 mg doses (4 out of 8)): 50.0%
- participants with response (Day 42, two 16 mg doses (6 out of 8)): 75%
- MADRS total score, Change from Baseline, Mean [9]: −17.6
- MADRS total score, Change from Baseline, Median [9]: −20.5
- MADRS total score, Observed, Mean [9]: 13.0
- MADRS total score, Observed, Median [9]: 11.5
- MADRS total score, Change from Baseline, Mean [10]: −20.9
- MADRS total score, Observed, Mean [10]: 10.7
- MADRS total score, Change from Baseline, Median [11]: −24.5
- MADRS total score, Observed, Median [11]: 7.0
- Relapse - No [12]: 22 (100.0) n (%)
- Relapse - Yes [12]: 0 (0.0) n (%)
- Remission (MADRS ≤10) - Yes [12]: 15 (68.2) n (%)
- Remission - No [12]: 7 (31.8) n (%)
- Response (≥50% reduction from baseline MADRS) - Yes [12]: 17 (77.3) n (%)
- Response - No [12]: 5 (22.7) n (%)
- MADRS, Difference in LS Means, 12 mg (two doses) compared to Placebo/active (one dose) (Day 42, 95% CI (−14.2, 7.5), P 0.5299): −3.34
- MADRS, Difference in LS Means, 12 mg compared to Cohort 6 (16 mg) (Day 42, 95% CI (−15.3, 22.5), P 0.6999): 3.58
- MADRS, difference in LS means, 16 mg (two doses) versus Placebo/active (one dose) (Day 42, 95% CI −22.8, 7.2, p=0.2931): −7.79
- participants meeting criteria for response (Day 126, two 12 mg doses (Day 1, Day 22), N=15): 73%
- participants meeting criteria for remission (Day 126, two 12 mg doses, N=15): 60%
- participants meeting criteria for response (Day 126, two 16 mg doses (Day 1, Day 22), N=8): 75%
- participants meeting criteria for remission (Day 126, two 16 mg doses, N=8): 75%
- effect size, Cohen's d, versus placebo (MADRS) (single 12 mg dose, 95% CI: 0.92, 3.37): 2.15
- effect size, Cohen's d, versus placebo (MADRS) (single 16 mg dose): 2.54
